For assay [1], the system named is C. albicans. The assay is described as follows: In vitro MIC susceptibility testing, broth microdilution. The format is cell-based, Candida albicans. Here is the method: (§1) In vitro MIC susceptibility testing. […]. Amphotericin B was used as a positive control and the MICs range were 0.25-1.5 μg/mL. Six untreated media controls were included on each plate. The plates were incubated at 33° C. for 72 h. The MICs were determined as the lowest concentration that inhibited visible growth. The MICs were read at 24, 48, and 72 hours, respectively. […]
In general terms: In broth dilution the organism is exposed to a series of concentrations in liquid medium.

In assay [2] the test system is C. auris. Described as above. The format is cell-based, Candida auris. On the set-up: unit: ug/mL. Here is the method: as §1
For assay [3], the system named is five Candida isolates, C. albicans K-1, C. tropicalis 98-234, C. auris B 11211, C. glabrata 4720, C. albicans SN 250. The assay is described as follows: In vitro MIC susceptibility testing, positive control over the Candida isolates. The format is cell-based. The settings on record: RPMI medium. Here is the method: as §1
In assay [4] the test system is C. glabrata. The assay is described as follows: In vitro MIC susceptibility testing, broth microdilution. The settings on record: Nakaseomyces glabratus. The format is cell-based, Candida glabrata. How it is done: as §1
Assay [5] concerns C. tropicalis. The description is as above. The format is cell-based. The settings on record: Candida tropicalis, strain 98-234; read-out: MIC. How it is done:
In vitro MIC susceptibility testing. […] The plates were incubated at 33° C. for 72 h. The MICs were determined as the lowest concentration that inhibited visible growth. The MICs were read at 24, 48, and 72 hours, respectively.

The subject of assay [6] is Aspergillus fumigatus. Kind of assay: In vitro MIC susceptibility testing. The format is cell-based. How it is done: as §1
For assay [7], the system named is A. fumigatus F11628. The conditions noted are these: same Cyp51 mutant A. fumigatus strain, comparison; cited from earlier work.
Setting [8] is: Candidozyma auris, strain B11104.
Setting [9] is: Candidozyma auris, strain B11203.
The mark [10] stands for this setting: Candidozyma auris, strain B11219.
Where [11] appears, read: Candidozyma auris, strain B11221.
The mark [12] stands for this setting: Candida albicans, strain 98-17, read-out: MIC.
Setting [13] is: Candida albicans, strain 98-210, read-out: MIC.
[14] abbreviates: Candida albicans, strain 580, read-out: MIC.
[15] abbreviates: Candida albicans, strain K1 (K-1), read-out: MIC.
Where [16] appears, read: Candidozyma auris, strain B11211, resistant to amphotericin B, fluconazole, micafungin, read-out: MIC.
The mark [17] stands for this setting: Candidozyma auris, strain B11220, read-out: MIC.
Setting [18] is: Candidozyma auris, strain B11785, read-out: MIC.
Where [19] appears, read: Candidozyma auris, strain B11799, read-out: MIC.
Where [20] appears, read: Candidozyma auris, strain B11801, read-out: MIC.
Setting [21] is: Candidozyma auris, strain B11804, read-out: MIC.
[22] abbreviates: positive controls, A. fumigatus F11628, read-out: MIC.

In brackets after ≈: the same amount, converted by molar mass. Read-outs that look alike come from different tables or passages of the source. *1 amine or outer side, *2 acyl side, *3 side chain or, on linkers, in order; H or OH if unused. Where a SMILES comes first, the peptide text is derived from it. Bridges are numbered along the chain shown (N, C = ends). [ ]: non-standard residue; d: D form. The star is where a group is joined. hTyr(3S-OH,4S-OH,3'-OSO3H) = N[C@H](C(=O)O)[C@H](O)[C@@H](O)c1ccc(O)c(OS(=O)(=O)O)c1; Orn(4R-OH,5R-OH) = O=C([C@H](C[C@@H](O)[C@@H](O)N[*:3])N[*:1])[*:2]; Pro(3S-OH,4S-Me) = C[C@H]1CN[C@H](C(=O)O)[C@H]1O; X1 = CCCCCOc1ccc(-c2cc(-c3ccc(C(=O)*)cc3)no2)cc1; Gln(3R-OH) = NC(=O)C[C@@H](O)[C@H](N)C(=O)O; Hyp = O=C(O)[C@@H]1C[C@@H](O)CN1

As a reminder, the MIC is the lowest concentration that inhibits growth of the organism. Turning to `C[C@@H]1[C@H](O)[C@@H](C)/C=C/C=C/C=C/C=C/C=C/C=C/C=C/[C@H](O[C@@H]2O[C@H](C)[C@@H](O)[C@H](N)[C@@H]2O)C[C@@H]2O[C@](O)(C[C@@H](O)C[C@@H](O)[C@H](O)CC[C@@H](O)C[C@@H](O)CC(=O)O[C@H]1C)C[C@H](O)[C@H]2C(=O)O` [Amphotericin B], the MIC in assay [1] (strain 98-17) came out at 0.25 µg/mL (≈ 0.271 µM); in assay [1] (strain K1 (K-1)), 0.25 µg/mL (≈ 0.271 µM); in assay [2] (strain B11104), 1 µg/mL (≈ 1.08 µM); in assay [2] (strain B11203) it was 4 µg/mL (≈ 4.33 µM); in assay [2] (strain B11211, resistant to amphotericin B, fluconazole, micafungin), 1.5 µg/mL (≈ 1.62 µM); in assay [2] (strain B11219), 3 µg/mL (≈ 3.25 µM). Besides, the MIC was found to be 0.38 µg/mL (≈ 0.411 µM) in assay [2] (strain B11220); 0.38 µg/mL (≈ 0.411 µM) in assay [2] (strain B11221); 1.5 µg/mL (≈ 1.62 µM) in assay [2] (strain B11785); 0.5 µg/mL (≈ 0.541 µM) in assay [2] (strain B11799); 6 µg/mL (≈ 6.49 µM) in assay [2] (strain B11801); 0.5 µg/mL (≈ 0.541 µM) in assay [2] (strain B11804). Further, the MICs range in assay [3] lay within 0.25 to 1.5 µg/mL.
Consider `CCCCCOc1ccc(-c2cc(-c3ccc(C(=O)N[C@H]4C[C@@H](O)[C@@H](O)NC(=O)[C@@H]5[C@@H](O)[C@@H](C)CN5C(=O)[C@H]([C@H](O)CC(N)=O)NC(=O)[C@H]([C@H](O)[C@@H](O)c5ccc(O)c(OS(=O)(=O)O)c5)NC(=O)[C@@H]5C[C@@H](O)CN5C(=O)[C@H]([C@@H](C)O)NC4=O)cc3)no2)cc1` [Micafungin, micafungin] (X1-[Orn(4R-OH,5R-OH)]T[Hyp][hTyr(3S-OH,4S-OH,3'-OSO3H)][Gln(3R-OH)][Pro(3S-OH,4S-Me)]; lactam 1-C), for which the MIC worked out at 0.06 µg/mL (≈ 0.0472 µM) in assay [1] (Candida albicans, strain 98-17); 0.03 µg/mL (≈ 0.0236 µM) in assay [1] (Candida albicans, strain 98-210); 0.016 µg/mL (≈ 0.0126 µM) in assay [1] (Candida albicans, strain 580); 0.03 µg/mL (≈ 0.0236 µM) in assay [1] (Candida albicans, strain K1 (K-1)); 0.016 µg/mL (≈ 0.0126 µM) in assay [4] (strain 513); 8 µg/mL (≈ 6.3 µM) in assay [4] (strain 729, Fks2_HS1_S663P). Further, the MIC was 4 µg/mL (≈ 3.15 µM) in assay [4] (strain 4720, Fks2_HS1_S645P, echinocandin resistant); 0.016 µg/mL (≈ 0.0126 µM) in assay [4] (strain 5592); 2 µg/mL (≈ 1.57 µM) in assay [4] (strain 14378, Fks1_HS1_S629P); 0.25 µg/mL (≈ 0.197 µM) in assay [2] (setting [8]); 0.25 µg/mL (≈ 0.197 µM) in assay [2] (setting [9]); 4 µg/mL (≈ 3.15 µM) in assay [2] (Candidozyma auris, strain B11211, resistant to amphotericin B, fluconazole, micafungin). For the same compound, the MIC in assay [2] (setting [10]) was 4 µg/mL (≈ 3.15 µM); in assay [2] (Candidozyma auris, strain B11220), 0.12 µg/mL (≈ 0.0945 µM); in assay [2] (setting [11]), 1 µg/mL (≈ 0.787 µM); in assay [2] (Candidozyma auris, strain B11785), 0.5 µg/mL (≈ 0.394 µM); in assay [2] (Candidozyma auris, strain B11799), 2 µg/mL (≈ 1.57 µM); in assay [2] (Candidozyma auris, strain B11801), 1 µg/mL (≈ 0.787 µM). The compound further had an MIC in assay [2] (Candidozyma auris, strain B11804) of 0.5 µg/mL (≈ 0.394 µM).
As for `OC(Cn1cncn1)(Cn1cncn1)c1ccc(F)cc1F` [Fluconzole, fluconazole], the MIC in assay [1] (setting [12]) was 16 µg/mL (≈ 52.2 µM); in assay [1] (setting [13]), 16 µg/mL (≈ 52.2 µM); in assay [1] (setting [14]), 4 µg/mL (≈ 13.1 µM); in assay [1] (setting [15]), 0.5 µg/mL (≈ 1.63 µM); in assay [5], 32 µg/mL (≈ 104 µM); in assay [2] (setting [8]) it was over 256 µg/mL. Also, the MIC in assay [2] (setting [9]) is 256 µg/mL (≈ 836 µM); in assay [2] (setting [16]), over 256 µg/mL; in assay [2] (setting [10]), over 256 µg/mL; in assay [2] (setting [17]), 4 µg/mL (≈ 13.1 µM); in assay [2] (setting [11]), 128 µg/mL (≈ 418 µM); in assay [2] (setting [18]), 8 µg/mL (≈ 26.1 µM). The MIC came out at 16 µg/mL (≈ 52.2 µM) in assay [2] (setting [19]), 16 µg/mL (≈ 52.2 µM) in assay [2] (setting [20]) and 2 µg/mL (≈ 6.53 µM) in assay [2] (setting [21]).
Consider `C[C@@H](c1nc(-c2ccc(C#N)cc2)cs1)[C@](O)(Cn1cncn1)c1cc(F)ccc1F` [Isavuconazole], for which, in assay [6] (setting [22]), the MIC is 8 µg/mL (≈ 18.3 µM).
For `CC[C@@H]([C@H](C)O)n1ncn(-c2ccc(N3CCN(c4ccc(OC[C@@H]5CO[C@@](Cn6cncn6)(c6ccc(F)cc6F)C5)cc4)CC3)cc2)c1=O` [Posaconazole, posaconazole], the MIC turned out to be 0.12 µg/mL (≈ 0.171 µM) in assay [1] (setting [12]); 0.12 µg/mL (≈ 0.171 µM) in assay [1] (setting [13]); 0.06 µg/mL (≈ 0.0856 µM) in assay [1] (setting [14]); 0.03 µg/mL (≈ 0.0428 µM) in assay [1] (setting [15]); 0.5 µg/mL (≈ 0.713 µM) in assay [2] (Candidozyma auris, strain B11104, read-out: MIC); 0.12 µg/mL (≈ 0.171 µM) in assay [2] (Candidozyma auris, strain B11203, read-out: MIC). For the same compound, the MIC in assay [2] (setting [16]) was 0.5 µg/mL (≈ 0.713 µM); in assay [2] (Candidozyma auris, strain B11219, read-out: MIC), 0.5 µg/mL (≈ 0.713 µM); in assay [2] (setting [17]), 0.06 µg/mL (≈ 0.0856 µM); in assay [2] (Candidozyma auris, strain B11221, read-out: MIC), 0.5 µg/mL (≈ 0.713 µM); in assay [2] (setting [18]) it was 0.016 µg/mL (≈ 0.0228 µM); in assay [2] (setting [19]) it was 0.06 µg/mL (≈ 0.0856 µM). The MIC in assay [2] (setting [20]) worked out at 0.12 µg/mL (≈ 0.171 µM); in assay [2] (setting [21]) it was 0.03 µg/mL (≈ 0.0428 µM); in assay [6] (setting [22]) it was 8 µg/mL (≈ 11.4 µM); in assay [6] (strain 293, read-out: MIC) it was 0.5 µg/mL (≈ 0.713 µM); in assay [6] (strain F14532, Cyp51 M220T) it was 1 µg/mL (≈ 1.43 µM); in assay [6] (strain F16216, Cyp51 L98H + TR) it was 2 µg/mL. Moreover, in assay [7], the “dose required to achieve 1-log kill” value is reported as 150 mg/kg/24 h.

The values above are taken from patent publication US12240859B2, “Turbinmicin compounds, compositions and uses thereof” (Wisconsin Alumni Research Foundation, priority 2019, dated 2025).
